Like-named read-outs stand apart in the source and are kept apart here.
Assays:
recombinant PI3 kinase α = recombinant PI3 kinase α (Homo sapiens (Human), UniProt P42336); assay: Enzyme Inhibition Assay (HTRF PI3K enzyme assay, TR-FRET); type: biochemical; details: activity range; read-out: PI3 Kinase Inhibition IC50 values at stated Isozyme α
Text: (§1) PI3 kinases catalyse the phosphorylation of phosphatidylinositol 4,5-biphosphate (PIP2) to phosphatidylinositol 3,4,5-triphosphate (PIP3) in the presence of ATP and Mg^2+ ions. The PIP3 product can be detected by displacement of biotin-PIP3 from energy transfer complexes consisting of europium labelled anti-GST monoclonal antibody, a GST-tagged Pleckstrin homology (PH) domain, biotinylated PIP3 and streptavidin-allophycocyanin (APC) by the time-resolved fluorescence resonance energy transfer (TR-FRET) (HTRF® PI3K enzyme assay, Millipore). […] The PIP3 product formed by PI3K activity displaces biotin-PIP3 from the complex and results in a loss of energy transfer (decreasing signal).
(§2) The compound to be tested was added, at the desired final concentrations, to a mixture of PIP2 substrate and recombinant PI3 kinase α, δ or γ enzymes (Millipore), and the mixture incubated for 2 hr at RT. […] A stopping solution containing biotinylated PIP3 and the detection mix containing the GST tagged GRP1 pleckstrin homology (PH) domain and fluorophores were then added and the mixture was incubated at RT for 15-18 hr, prior to detection in a fluorescence microplate reader (Varioskan® Flash, ThermoFisher Scientific).

[1] = system: PMA-differentiated U937 cells; assay: MTT Assay (cell viability); type: cell-based, Human; details: percentage loss of cell viability; for Cell Viability MTT Assay in D-U937 cells at 4 hr: 4 hr in 5% FCS; for Cell Viability MTT Assay in D-U937 cells at 24 hr: 24 hr in 10% FCS
Protocol: PMA-differentiated U937 cells were pre-incubated with compound for 4 hr in 5% FCS or 10% FCS for 24 hr. The supernatant was replaced with 200 μL of new media and 10 μL of MTT stock solution (5 mg/ml) added to each well. After 1 hr incubation, the media were removed, 200 μL of DMSO added to each well and the plates were shaken lightly for 1 hr prior to reading the absorbance at 550 nm. The percentage loss of cell viability was calculated for each well relative to vehicle (0.5% DMSO)-treatment (Table 3).

[2] = system: H2O2 induced pAkt in D-U937 cells; assay: PI3Kδ Cell Based Assay (H2O2 induced pAkt); details: Homo sapiens
Protocol: As a means of assessing PI3K 6 activation in response to stimuli, the phosphorylation status of the protein, Akt, a downstream product of PI3K6, signaling was determined. Human monocytic cells (U937 cells), were differentiated to macrophage-type cells by incubation with phorbol myristate acetate (PMA; 100 ng/mL) for 48 to 72 hr. […] The cells were washed with buffer (PBS containing 0.1% Triton X-100) and were incubated with blocking solution (1% BSA in PBS) for 1 hr and were then re-washed with buffer and incubated overnight with either anti-pAkt antibody or anti-pan-Akt antibody (both from Cell Signaling Technology). […] This reaction was stopped by addition of 100 μL of 1N H2SO4 solution. […] The ratio of pAkt signal to total Akt signal was used to quantitate the extent of PI3K δ activation. […] The IC50 values were calculated from the concentration-response curves generated by the serial dilutions of the test compounds (Table 3 and Table 4).

recombinant PI3 kinase γ = recombinant PI3 kinase γ (Homo sapiens (Human), UniProt P48736); assay: Enzyme Inhibition Assay (HTRF PI3K enzyme assay, TR-FRET); type: biochemical; details: activity range; read-out: PI3 Kinase Inhibition IC50 values at stated Isozyme γ
Text: as §1, §2

recombinant PI3 kinase δ = recombinant PI3 kinase δ (Homo sapiens (Human), UniProt O00329); assay: as above; type: biochemical; details: activity range; read-out: PI3 Kinase Inhibition IC50 values at stated Isozyme δ
Text: as §1, §2

[3] = dU937, activity range, D-U937 cells, read-out: Cellular Activity IC50 values (H2O2 induced pAkt D-U937 Cells)

recombinant PI3 kinase α, sequence (P42336 whole entry): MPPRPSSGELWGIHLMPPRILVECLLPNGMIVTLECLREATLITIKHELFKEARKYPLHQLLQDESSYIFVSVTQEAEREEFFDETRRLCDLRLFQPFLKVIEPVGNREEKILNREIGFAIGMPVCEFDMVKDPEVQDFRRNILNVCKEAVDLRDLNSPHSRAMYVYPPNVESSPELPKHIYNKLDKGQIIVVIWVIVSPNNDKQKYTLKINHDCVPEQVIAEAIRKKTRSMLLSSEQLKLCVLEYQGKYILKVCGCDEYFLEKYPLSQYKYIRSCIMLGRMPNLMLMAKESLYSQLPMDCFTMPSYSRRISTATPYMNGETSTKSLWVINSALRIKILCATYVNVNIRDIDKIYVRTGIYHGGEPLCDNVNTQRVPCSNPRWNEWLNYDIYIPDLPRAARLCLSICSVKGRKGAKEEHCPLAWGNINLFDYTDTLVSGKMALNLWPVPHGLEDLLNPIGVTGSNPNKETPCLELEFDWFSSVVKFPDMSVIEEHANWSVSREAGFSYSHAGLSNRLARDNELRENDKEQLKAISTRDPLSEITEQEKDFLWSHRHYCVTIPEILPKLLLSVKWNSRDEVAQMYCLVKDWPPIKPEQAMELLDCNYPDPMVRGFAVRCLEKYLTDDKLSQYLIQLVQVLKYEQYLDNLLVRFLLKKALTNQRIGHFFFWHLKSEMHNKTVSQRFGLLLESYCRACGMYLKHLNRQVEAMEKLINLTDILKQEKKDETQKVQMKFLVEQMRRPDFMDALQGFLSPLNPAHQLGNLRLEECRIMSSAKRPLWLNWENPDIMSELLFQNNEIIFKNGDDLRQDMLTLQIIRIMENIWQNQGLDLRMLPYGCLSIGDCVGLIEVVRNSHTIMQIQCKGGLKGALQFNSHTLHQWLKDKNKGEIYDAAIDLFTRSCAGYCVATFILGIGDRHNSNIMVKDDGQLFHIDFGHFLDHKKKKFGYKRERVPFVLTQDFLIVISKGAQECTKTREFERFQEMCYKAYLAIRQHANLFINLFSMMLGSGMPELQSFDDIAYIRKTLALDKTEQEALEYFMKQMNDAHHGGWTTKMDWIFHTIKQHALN
recombinant PI3 kinase α, sequence (P27986 whole entry partner): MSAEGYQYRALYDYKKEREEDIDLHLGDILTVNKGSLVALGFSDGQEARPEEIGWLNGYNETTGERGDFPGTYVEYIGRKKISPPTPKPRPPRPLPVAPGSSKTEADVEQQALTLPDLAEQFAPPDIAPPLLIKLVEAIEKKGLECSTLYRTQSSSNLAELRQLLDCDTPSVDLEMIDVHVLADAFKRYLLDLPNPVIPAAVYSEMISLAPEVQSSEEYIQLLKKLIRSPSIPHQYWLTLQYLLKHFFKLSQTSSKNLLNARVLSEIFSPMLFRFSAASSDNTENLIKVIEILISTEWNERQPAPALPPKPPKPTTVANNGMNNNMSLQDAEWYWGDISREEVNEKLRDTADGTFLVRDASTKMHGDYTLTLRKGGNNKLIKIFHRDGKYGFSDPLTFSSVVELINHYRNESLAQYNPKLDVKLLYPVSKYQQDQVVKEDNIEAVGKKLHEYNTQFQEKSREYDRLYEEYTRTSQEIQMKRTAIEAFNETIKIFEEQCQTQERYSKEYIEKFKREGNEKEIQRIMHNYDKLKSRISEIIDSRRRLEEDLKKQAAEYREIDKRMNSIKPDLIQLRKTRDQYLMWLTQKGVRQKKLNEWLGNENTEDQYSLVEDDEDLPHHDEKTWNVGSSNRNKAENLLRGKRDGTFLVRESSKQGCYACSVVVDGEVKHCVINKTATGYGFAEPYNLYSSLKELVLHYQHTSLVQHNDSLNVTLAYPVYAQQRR
recombinant PI3 kinase γ, sequence (P48736 whole entry): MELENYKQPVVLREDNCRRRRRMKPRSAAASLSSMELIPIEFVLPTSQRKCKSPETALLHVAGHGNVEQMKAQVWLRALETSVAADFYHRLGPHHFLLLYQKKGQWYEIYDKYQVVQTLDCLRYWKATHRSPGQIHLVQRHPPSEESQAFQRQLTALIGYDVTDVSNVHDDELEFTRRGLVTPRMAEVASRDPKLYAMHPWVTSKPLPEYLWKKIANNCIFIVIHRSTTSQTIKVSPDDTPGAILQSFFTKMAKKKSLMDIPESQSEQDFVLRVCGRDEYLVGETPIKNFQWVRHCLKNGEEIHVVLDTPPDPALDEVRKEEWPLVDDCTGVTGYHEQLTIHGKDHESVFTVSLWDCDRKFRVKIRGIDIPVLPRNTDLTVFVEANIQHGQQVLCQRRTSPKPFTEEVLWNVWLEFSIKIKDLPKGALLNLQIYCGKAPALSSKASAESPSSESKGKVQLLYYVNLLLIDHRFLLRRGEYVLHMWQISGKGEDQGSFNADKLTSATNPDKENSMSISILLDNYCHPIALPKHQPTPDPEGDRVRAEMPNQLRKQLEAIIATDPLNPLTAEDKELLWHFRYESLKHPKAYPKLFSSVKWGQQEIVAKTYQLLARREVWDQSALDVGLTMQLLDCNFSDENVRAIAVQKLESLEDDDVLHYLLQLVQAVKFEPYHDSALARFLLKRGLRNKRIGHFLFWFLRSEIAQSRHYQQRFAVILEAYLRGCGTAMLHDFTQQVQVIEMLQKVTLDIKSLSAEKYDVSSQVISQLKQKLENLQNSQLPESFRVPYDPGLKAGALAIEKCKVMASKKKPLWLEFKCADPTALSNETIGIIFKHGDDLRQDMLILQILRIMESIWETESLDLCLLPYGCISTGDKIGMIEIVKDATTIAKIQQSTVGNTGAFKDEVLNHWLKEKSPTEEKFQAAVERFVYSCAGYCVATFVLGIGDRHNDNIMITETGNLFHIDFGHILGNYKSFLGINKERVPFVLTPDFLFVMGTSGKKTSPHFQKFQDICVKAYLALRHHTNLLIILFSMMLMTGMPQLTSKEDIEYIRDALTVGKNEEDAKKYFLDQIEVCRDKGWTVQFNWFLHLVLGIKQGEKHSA
recombinant PI3 kinase δ, sequence (O00329 whole entry): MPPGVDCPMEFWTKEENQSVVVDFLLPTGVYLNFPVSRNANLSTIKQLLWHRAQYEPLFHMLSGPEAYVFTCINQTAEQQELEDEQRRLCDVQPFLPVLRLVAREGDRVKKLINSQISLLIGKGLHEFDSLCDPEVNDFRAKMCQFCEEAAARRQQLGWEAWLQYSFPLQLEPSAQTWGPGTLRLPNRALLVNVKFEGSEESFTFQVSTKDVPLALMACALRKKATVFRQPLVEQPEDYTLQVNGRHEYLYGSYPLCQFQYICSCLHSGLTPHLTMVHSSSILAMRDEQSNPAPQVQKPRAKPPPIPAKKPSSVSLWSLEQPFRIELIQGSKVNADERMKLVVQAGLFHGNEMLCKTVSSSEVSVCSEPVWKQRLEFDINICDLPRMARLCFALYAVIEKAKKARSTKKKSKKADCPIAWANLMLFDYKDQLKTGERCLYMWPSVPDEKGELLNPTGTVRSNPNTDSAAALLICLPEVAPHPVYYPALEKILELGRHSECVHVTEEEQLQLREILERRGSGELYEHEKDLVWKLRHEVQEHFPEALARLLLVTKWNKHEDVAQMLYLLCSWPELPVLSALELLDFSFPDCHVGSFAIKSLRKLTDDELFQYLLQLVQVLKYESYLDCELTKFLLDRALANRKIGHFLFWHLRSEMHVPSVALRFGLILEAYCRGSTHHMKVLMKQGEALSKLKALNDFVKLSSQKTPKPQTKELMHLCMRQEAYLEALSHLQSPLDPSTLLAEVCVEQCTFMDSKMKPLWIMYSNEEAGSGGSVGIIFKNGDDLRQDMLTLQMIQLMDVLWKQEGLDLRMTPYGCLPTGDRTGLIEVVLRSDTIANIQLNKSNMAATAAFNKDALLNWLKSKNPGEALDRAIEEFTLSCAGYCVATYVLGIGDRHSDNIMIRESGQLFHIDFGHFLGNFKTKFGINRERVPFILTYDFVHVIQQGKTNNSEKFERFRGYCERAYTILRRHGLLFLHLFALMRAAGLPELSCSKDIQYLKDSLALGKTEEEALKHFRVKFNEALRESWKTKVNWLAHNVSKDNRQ
recombinant PI3 kinase δ, sequence (P27986 whole entry partner): as the sequence (P27986 whole entry partner) above

| IC50 (recombinant PI3 kinase α) [nM] | IC50 [2, 3] [nM] | IC50 (recombinant PI3 kinase γ) [nM] | IC50 (recombinant PI3 kinase δ) [nM] | Compound | Cell Viability MTT Assay in D-U937 cells at 4 hr [1] | Cell Viability MTT Assay in D-U937 cells at 24 hr [1] | IC50 ([2]; dU937, read-out: Cellular Activity IC50 values (H2O2 induced pAkt D-U937 Cells)) [nM] |
| --- | --- | --- | --- | --- | --- | --- | --- |
| – | < 10 | – | – | CC(=O)NCC(=O)NCC#Cc1cccc2nc(Cn3nc(-c4cccc(O)c4)c4c(N)ncnc43)n(Cc3ccccc3Cl)c(=O)c12 [Example 61, 2-Acetamido-N-(3-(2-((4-amino-3-(3-hydroxyphenyl)-1H-pyrazolo[3,4-d]pyrimidin-1-yl)methyl)-3-(2-chlorobenzyl)-4-oxo-3,4-dihydroquinazolin-5-yl)prop-2-yn-1-yl)acetamide] | − (− <30%) | − (− <30%) | – |
| – | – | – | < 50 | Nc1ncnc2c1c(-c1ccc(O)cc1)nn2Cc1nc2cccc(C#CCCCC(=O)NC3CCCC3)c2c(=O)n1Cc1ccccc1Cl [Example 74, 6-(2-((4-Amino-3-(4-hydroxyphenyl)-1H-pyrazolo[3,4-d]pyrimidin-1-yl)methyl)-3-(2-chlorobenzyl)-4-oxo-3,4-dihydroquinazolin-5-yl)-N-cyclopentylhex-5-ynamide] | − (− <30%) | − (− <30%) | – |
| – | 10 to 1000 | – | < 50 | Nc1ncnc2c1c(-c1cccc(O)c1)nn2Cc1nc2cccc(C#CCCCC(=O)Nc3ccncc3)c2c(=O)n1Cc1ccccc1Cl [Example 80, 6-(2-((4-Amino-3-(3-hydroxyphenyl)-1H-pyrazolo[3,4-d]pyrimidin-1-yl)methyl)-3-(2-chlorobenzyl)-4-oxo-3,4-dihydroquinazolin-5-yl)-N-(pyridin-4-yl)hex-5-ynamide] | − (− <30%) | − (− <30%) | – |
| – | < 10 | – | < 50 | CN1CCN(CCNC(=O)CCCC#Cc2cccc3nc(Cn4nc(-c5ccc(O)cc5)c5c(N)ncnc54)n(Cc4ccccc4Cl)c(=O)c23)CC1 [Example 84, 6-(2-((4-Amino-3-(4-hydroxyphenyl)-1H-pyrazolo[3,4-d]pyrimidin-1-yl)methyl)-3-(2-chlorobenzyl)-4-oxo-3,4-dihydroquinazolin-5-yl)-N-(2-(4-methylpiperazin-1-yl)ethyl)hex-5-ynamide] | − (− <30%) | − (− <30%) | – |
| – | < 10 | – | < 50 | CN1CCN(CCN(C)C(=O)CCCC#Cc2cccc3nc(Cn4nc(-c5ccc(O)cc5)c5c(N)ncnc54)n(Cc4ccccc4Cl)c(=O)c23)CC1 [Example 85, 6-(2-((4-Amino-3-(4-hydroxyphenyl)-1H-pyrazolo[3,4-d]pyrimidin-1-yl)methyl)-3-(2-chlorobenzyl)-4-oxo-3,4-dihydroquinazolin-5-yl)-N-methyl-N-(2-(4-methylpiperazin-1-yl)ethyl)hex-5-ynamide] | − (− <30%) | − (− <30%) | – |
| – | < 10 | – | < 50 | CC(C)NC(=O)CCCC#Cc1cccc2nc(Cn3nc(-c4cccc(O)c4)c4c(N)ncnc43)n(Cc3ccccc3Cl)c(=O)c12 [Example 87, 6-(2-((4-Amino-3-(3-hydroxyphenyl)-1H-pyrazolo[3,4-d]pyrimidin-1-yl)methyl)-3-(2-chlorobenzyl)-4-oxo-3,4-dihydroquinazolin-5-yl)-N-isopropylhex-5-ynamide] | − (− <30%) | − (− <30%) | – |
| – | 10 to 1000 | – | < 50 | CN(C)C1CCN(C(=O)CCCC#Cc2cccc3nc(Cn4nc(-c5cccc(O)c5)c5c(N)ncnc54)n(Cc4ccccc4Cl)c(=O)c23)C1 (stereo not shown) [Example 92, 2-((4-Amino-3-(3-hydroxyphenyl)-1H-pyrazolo[3,4-d]pyrimidin-1-yl)methyl)-3-(2-chlorobenzyl)-5-(6-(3-(dimethylamino)pyrrolidin-1-yl)-6-oxohex-1-ynyl) quinazolin-4(3H)-one] | − (− <30%) | − (− <30%) | – |
| – | 10 to 1000 | – | 50 to 1000 | CN1CCCN(C(=O)CCCC#Cc2cccc3nc(Cn4nc(-c5cccc(O)c5)c5c(N)ncnc54)n(Cc4ccccc4Cl)c(=O)c23)CC1 [Example 94, 2-((4-Amino-3-(3-hydroxyphenyl)-1H-pyrazolo[3,4-d]pyrimidin-1-yl)methyl)-3-(2-chlorobenzyl)-5-(6-(4-methyl-1,4-diazepan-1-yl)-6-oxohex-1-ynyl)quinazolin-4(3H)-one] | − (− <30%) | − (− <30%) | – |

The next lines start with the molecule.

| Compound | IC50 (recombinant PI3 kinase α) [nM] | IC50 [2, 3] [nM] | IC50 (recombinant PI3 kinase γ) [nM] | IC50 (recombinant PI3 kinase δ) [nM] | Cell Viability MTT Assay in D-U937 cells at 4 hr [1] | Cell Viability MTT Assay in D-U937 cells at 24 hr [1] | IC50 ([2]; dU937, read-out: Cellular Activity IC50 values (H2O2 induced pAkt D-U937 Cells)) [nM] |
| --- | --- | --- | --- | --- | --- | --- | --- |
| COCCOCCOCC#Cc1cccc2nc(Cn3nc(-c4cccc(O)c4)c4c(N)ncnc43)n(Cc3ccccc3Cl)c(=O)c12 [Example 2, 2-((4-Amino-3-(3-hydroxyphenyl)-1H-pyrazolo[3,4-d]pyrimidin-1-yl)methyl)-3-(2-chlorobenzyl)-5-(3-(2-(2-methoxyethoxy)ethoxy)prop-1-yn-1-yl)quinazolin-4(3H)-one] | > 1000 | < 10 | – | – | − (− <30%) | − (− <30%) | – |
| Nc1ncnc2c1c(-c1cccc(O)c1)nn2Cc1nc2cccc(C#CCCCC(=O)N3CCOCC3)c2c(=O)n1Cc1ccccc1Cl [Example 3, 2-((4-Amino-3-(3-hydroxyphenyl)-1H-pyrazolo[3,4-d]pyrimidin-1-yl)methyl)-3-(2-chlorobenzyl)-5-(6-morpholino-6-oxohex-1-yn-1-yl)quinazolin-4(3H)-one] | < 50 | < 10 | < 50 | < 50 | − (− <30%) | − (− <30%) | – |
| N#Cc1cccc(Cn2c(Cn3nc(-c4cccc(O)c4)c4c(N)ncnc43)nc3cccc(C#CCOCCOCCO)c3c2=O)c1 [Example 6, 3-((2-((4-Amino-3-(3-hydroxyphenyl)-1H-pyrazolo[3,4-d]pyrimidin-1-yl)methyl)-5-(3-(2-(2-hydroxyethoxy)ethoxy)prop-1-yn-1-yl)-4-oxoquinazolin-3(4H)-yl)methyl)benzonitrile] | 50 to 1000 | < 10 | 50 to 1000 | < 50 | − (− <30%) | − (− <30%) | – |
| Nc1ncnc2c1c(-c1ccc(O)cc1)nn2Cc1nc2cccc(C#CCCCNC3CCCC3)c2c(=O)n1Cc1ccccc1Cl [Example 7, 2-((4-Amino-3-(4-hydroxyphenyl)-1H-pyrazolo[3,4-d]pyrimidin-1-yl)methyl)-3-(2-chlorobenzyl)-5-(5-(cyclopentylamino)pent-1-ynyl)quinazolin-4(3H)-one] | 50 to 1000 | < 10 | 50 to 1000 | < 50 | − (− <30%) | − (− <30%) | – |
| Nc1ncnc2c1c(-c1cccc(O)c1)nn2Cc1nc2cccc(C#CCOCCN3CCOCC3)c2c(=O)n1Cc1ccccc1Cl [Example 8, 2-((4-Amino-3-(3-hydroxyphenyl)-1H-pyrazolo[3,4-d]pyrimidin-1-yl)methyl)-3-(2-chlorobenzyl)-5-(3-(2-morpholinoethoxy)prop-1-ynyl)quinazolin-4(3H)-one] | 50 to 1000 | – | 50 to 1000 | < 50 | − (− <30%) | − (− <30%) | < 10 |
| Cc1cnc(Cn2c(Cn3nc(-c4cccc(O)c4)c4c(N)ncnc43)nc3cccc(C#CCCCC(=O)N4CCOCC4)c3c2=O)cn1 [Example 57] | – | < 10 | – | – | − (− <30%) | − (− <30%) | – |

— patent US9321773B2, “Compounds” (Respivert Ltd, priority 2009, dated 2016)
